In ChEMBL document CHEMBL1133413, “Selection of a potent inhibitor of trihydroxynaphthalene reductase by sorting disease control data” (Bioorg Med Chem Lett, 2000):

Target: T1, Scytalone dehydratase (Magnaporthe oryzae (strain 70-15 / FGSC 8958) (Rice blast fungus)(Pyricularia oryzae), UniProt P56221)
T1 sequence (P56221 whole entry): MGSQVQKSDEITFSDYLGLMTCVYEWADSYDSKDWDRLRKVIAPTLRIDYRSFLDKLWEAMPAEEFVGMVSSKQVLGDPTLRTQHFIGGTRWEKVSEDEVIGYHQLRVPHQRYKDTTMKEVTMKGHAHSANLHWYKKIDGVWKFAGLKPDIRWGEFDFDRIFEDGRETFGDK
Experiment: Compound was evaluated for its inhibition constant against scytalone dehydratase (SD)
Parameters: species or system Pyricularia grisea

`O=C(/C=C/c1ccccc1)NC(=S)Nc1ccc(S(=O)(=O)Nc2cc(F)ccc2F)cc1` showed a Ki of 6.4 nM.
